Experimental data taken from patent US6803195B1, “Facile detection of cancer and cancer risk based on level of coordination between alleles” (Ramot At Tel-Aviv University Ltd., priority 1999, dated 2004).
Several values for one entry are separate records, joined by “and”; a condition that tells them apart may be missing. Equal entries are not always repeated.

What was measured:
[1] = test system: CAD samples (hematological malignancy patients at diagnosis); assay: FISH replication assay, cultures of hematological malignancy patients (CAD) with chromatin modifiers (Example 10); assay type: cell-based, human; conditions: for frequency (%) of SD cells, Mean: N = 10; for replication pattern in cells derived from cancer patients: cultured cells with chromatin modifier
From the text: (§1) Cultures were set up from 44 healthy individuals (hereafter called CON) and 20 hematological malignancy patients at diagnosis (hereafter termed CAD). For 20 of the CON samples and all of the CAD samples peripheral in addition to the setting up cultures in the regular growth medium, cultures were set up in medium containing 5-azacytidine (10^−7M; Sigma, USA; hereafter referred to as AZA) a demethylating agent. In addition, cultures from 6 CON and 10 CAD samples were set up in medium containing a deacetylating agents, either Trichostatin A (33 nM; Sigma, USA; hereafter referred to as TSA) or Sodium Butirate (1 nM; Sigma, USA; hereafter referred to as NB), two well described acetylating agents.
(§2) These samples were hybridized with two commercial probes: the AML1 probe (LSI 21, […]) and the α-satellite probe specific for centromere 17 (32-130017, hereafter marked as CEN17). The results are summarized in Table 1 giving the number of samples hybridized with each probe (N), Mean and standard deviation (stdev) as well as the p value obtained using two tailed student's t-test (Microsoft Office 98).

[2] = test system: CON samples (healthy individuals); assay: FISH replication assay, cultures of healthy individuals (CON) with chromatin modifiers (Example 10); assay type: cell-based, human; conditions: cultured cells with chromatin modifier
From the text: as §1, §2

[3] = test system: peripheral blood lymphocytes (PBL); assay: FISH replication assay on PBL of healthy donors treated with GCSF; assay type: in vivo, human; conditions: five days after GCSF treatment; for % SD after GCSF treatment, Average: PBL of healthy donors, n = 6 as printed; for % SD after GCSF treatment: PBL of individual healthy donors
From the text: Healthy subjects treated with GCSF. Seven first degree relatives (sibling or parent) of patients suffering from hematological malignancies who were candidates for donating peripheral blood stem cells agreed to participate in the study. PBL were collected before treatment with GCSF and five days after treatment, on the day of collecting cells for transplantation. Six donors were male, one female.
Comparison of synchrony in healthy subjects, cancer patients and GCSF-treated healthy donors. Bone marrow and PBL samples were obtained with informed consent from healthy control subjects and patients as detailed hereinabove. Samples were analyzed by FISH as described hereinabove.
It is believed that the SD cell percentage values are enhanced for a limited time and return to normal after cessation of GCSF treatment. The samples tested here were obtained five days after GCSF treatment. This period is usually chosen for obtaining cells for transplantation, because at the effect of GCSF is maximal five days after administration.

Molecule: CCCC(=O)[O-].[Na+] [NB, Sodium Butirate]
- frequency (%) of SD cells, Mean ([1]; AML1 locus, CAD + NB (1 nM)): Mean = 23.2%
- frequency (%) of SD cells, Mean ([1]; CEN17 locus, CAD + NB (1 nM)): Mean = 19.6%
- replication pattern in cells derived from cancer patients [1]: attenuate the replication pattern presented in cells derived from cancer patients towards the normal
- replication pattern observed in normal genomes [2]: not affecting

Molecule: CC(/C=C/C(=O)NO)=C\[C@@H](C)C(=O)c1ccc(N(C)C)cc1 [TSA, Trichostatin A]
- frequency (%) of SD cells, Mean ([1]; AML1 locus, CAD + TSA (33 nM)): Mean = 24.2%
- frequency (%) of SD cells, Mean ([1]; CEN17 locus, CAD + TSA (33 nM)): Mean = 20.3%
- replication pattern in cells derived from cancer patients [1]: attenuate the replication pattern presented in cells derived from cancer patients towards the normal
- replication pattern observed in normal genomes [2]: not affecting

B1: GCSF: hematopoietic growth factor given to donors of bone marrow cells to enhance the number of stem cells (protein, UniProt P09919 31-207, looked up)
Granulocyte …: TPLGPASSLPQSFLLKCLEQVRKIQGDGAALQEKLVSECATYKLCHPEELVLLGHSLGIPWAPLSSCPSQALQLAGCLSQLHSGLFLYQGLLQALEGISPELGPTLDTLQLDVADFATTIWQQMEELGMAPALQPTQGAMPAFASAFQRRAGGVLVASHLQSFLEVSYRVLRHLAQP
- % SD after GCSF treatment, Average ([3]; 21q22 probe (D21S55)): 35.42%
- % SD after GCSF treatment ([3]; 21q22 probe (D21S55)): 32% and 43% and 39% (2×) and 31% and 29% and 35%
- % SD after GCSF treatment, Average ([3]; TP53 probe): 36.57%
- % SD after GCSF treatment ([3]; TP53 probe): 34% (2×) and 41% and 38% and 36% (2×) and 37%
